Laboratory results as given in patent US7893203B2, “Protein involved in G protein-coupled receptor mediated signal transduction with ability to mediate signal transduction from a dopamine D1 receptor or an adenosine A2A receptor to an adenylate cyclase and utilization thereof” (Sumitomo Chemical Company, Ltd., priority 2002, dated 2011).

Target: T1, adenosine A2a receptor (Homo sapiens, UniProt P29274)
T1 construct: expressed in transfected cells; host or cells: CHO cells, transient lipofection
T1 sequence (P29274 whole entry): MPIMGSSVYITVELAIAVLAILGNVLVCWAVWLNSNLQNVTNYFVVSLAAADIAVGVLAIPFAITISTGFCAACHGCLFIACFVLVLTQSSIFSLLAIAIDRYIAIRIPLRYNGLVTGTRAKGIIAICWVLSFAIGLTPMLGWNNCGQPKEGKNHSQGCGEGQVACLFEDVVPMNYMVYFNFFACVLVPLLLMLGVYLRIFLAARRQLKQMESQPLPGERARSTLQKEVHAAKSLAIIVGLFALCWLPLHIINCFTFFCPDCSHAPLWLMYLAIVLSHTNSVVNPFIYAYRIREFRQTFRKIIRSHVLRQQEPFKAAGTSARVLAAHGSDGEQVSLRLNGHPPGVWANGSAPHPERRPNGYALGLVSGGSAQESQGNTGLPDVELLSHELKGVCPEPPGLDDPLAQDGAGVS
Experiment: Screening of adenosine A2a receptor antagonist using change in cAMP level as index
Format: cell-based
Conditions: 10 μM test substance with 10 μM adenosine, CHO cells with A2a receptor and Gm1, cAMP level
Description: Then, 10 μM of adenosine as a GPCR ligand and 10 μM of a test substance (DMPX) were added and incubated at 37° C. for 30 minutes.
A substance which gave a cAMP level percentage of 85% or less upon contact of the cell with the ligand and the test substance was selected as a signal transduction inhibitor (antagonist), on the basis of the cAMP level with no contact being 0% and the cAMP level with the contact of the cell only with the ligand being 100% (FIG. 4).

C#CCn1c(=O)c2c(ncn2C)n(C)c1=O [DMPX]
adenosine A2a receptor antagonistic effects (FIG. 4): antagonistic effects
